How the values were obtained:
[1] = molecular target: Testis-specific serine/threonine-protein kinase 3 (Homo sapiens) (UniProt Q96PN8); conditions: Compound concentration 1000.0 nM
[2] = molecular target: Cyclin-dependent kinase 2 (Homo sapiens) (UniProt P24941); conditions: Compound concentration 1000.0 nM
[3] = molecular target: Activin receptor type-2A (Homo sapiens) (UniProt P27037); conditions: Compound concentration 1000.0 nM
[4] = molecular target: Serine/threonine-protein kinase Nek11 (Homo sapiens) (UniProt Q8NG66); conditions: Compound concentration 1000.0 nM
[5] = molecular target: Phosphatidylinositol 4-phosphate 5-kinase type-1 gamma (Homo sapiens) (UniProt O60331); conditions: Compound concentration 1000.0 nM
[6] = molecular target: Mitogen-activated protein kinase kinase kinase 5 (Homo sapiens) (UniProt Q99683); conditions: Compound concentration 1000.0 nM
[7] = tested on: Mast/stem cell growth factor receptor Kit (Homo sapiens), P10721 [L576P]; conditions: Compound concentration 1000.0 nM
[8] = molecular target: Homeodomain-interacting protein kinase 3 (Homo sapiens) (UniProt Q9H422); conditions: Compound concentration 1000.0 nM
[9] = molecular target: Cyclin-dependent kinase 4 (Homo sapiens) (UniProt P11802); conditions: Compound concentration 1000.0 nM
[10] = tested on: Epidermal growth factor receptor (Homo sapiens), P00533 [UNDEFINED MUTATION]; conditions: Compound concentration 1000.0 nM
[11] = molecular target: Serine/threonine-protein kinase Nek4 (Homo sapiens) (UniProt P51957); conditions: Compound concentration 1000.0 nM
[12] = molecular target: Interleukin-1 receptor-associated kinase 4 (Homo sapiens) (UniProt Q9NWZ3); conditions: Compound concentration 1000.0 nM
[13] = molecular target: Atypical kinase COQ8B, mitochondrial (Homo sapiens) (UniProt Q96D53); conditions: Compound concentration 1000.0 nM
[14] = molecular target: Cyclin-dependent kinase-like 1 (Homo sapiens) (UniProt Q00532); conditions: Compound concentration 1000.0 nM
[15] = molecular target: Serine/threonine-protein kinase Nek10 (Homo sapiens) (UniProt Q6ZWH5); conditions: Compound concentration 1000.0 nM
[16] = molecular target: Inhibitor of nuclear factor kappa-B kinase subunit beta (Homo sapiens) (UniProt O14920); conditions: Compound concentration 1000.0 nM
[17] = molecular target: Serine/threonine-protein kinase BRSK2 (Homo sapiens) (UniProt Q8IWQ3); conditions: Compound concentration 1000.0 nM
[18] = molecular target: Mitogen-activated protein kinase 7 (Homo sapiens) (UniProt Q13164); conditions: Compound concentration 1000.0 nM
[19] = molecular target: Serine/threonine-protein kinase WNK3 (Homo sapiens) (UniProt Q9BYP7); conditions: Compound concentration 1000.0 nM
[20] = tested on: Serine/threonine-protein kinase B-raf (Homo sapiens), P15056 [V600E]; conditions: Compound concentration 1000.0 nM
[21] = molecular target: Serine/threonine-protein kinase PAK 3 (Homo sapiens) (UniProt O75914); conditions: Compound concentration 1000.0 nM
[22] = molecular target: Testis-specific serine/threonine-protein kinase 1 (Homo sapiens) (UniProt Q9BXA7); conditions: Compound concentration 1000.0 nM
[23] = molecular target: Beta-adrenergic receptor kinase 1 (Homo sapiens) (UniProt P25098); conditions: Compound concentration 1000.0 nM
[24] = molecular target: Proto-oncogene tyrosine-protein kinase ROS (Homo sapiens) (UniProt P08922); conditions: Compound concentration 1000.0 nM
[25] = tested on: Tyrosine-protein kinase ABL1 (Homo sapiens), P00519 [E255K]; conditions: Compound concentration 1000.0 nM
[26] = molecular target: TGF-beta receptor type-2 (Homo sapiens) (UniProt P37173); conditions: Compound concentration 1000.0 nM
[27] = molecular target: Mitogen-activated protein kinase kinase kinase 19 (Homo sapiens) (UniProt Q56UN5); conditions: Compound concentration 1000.0 nM
[28] = molecular target: Serine/threonine-protein kinase MARK1 (Homo sapiens) (UniProt Q9P0L2); conditions: Compound concentration 1000.0 nM
[29] = molecular target: Mitogen-activated protein kinase kinase kinase 20 (Homo sapiens) (UniProt Q9NYL2); conditions: Compound concentration 1000.0 nM
[30] = molecular target: Platelet-derived growth factor receptor alpha (Homo sapiens) (UniProt P16234); conditions: Compound concentration 1000.0 nM
[31] = molecular target: Misshapen-like kinase 1 (Homo sapiens) (UniProt Q8N4C8); conditions: Compound concentration 1000.0 nM
[32] = molecular target: Ribosomal protein S6 kinase beta-1 (Homo sapiens) (UniProt P23443); conditions: Compound concentration 1000.0 nM
[33] = molecular target: LIM domain kinase 1 (Homo sapiens) (UniProt P53667); conditions: Compound concentration 1000.0 nM
[34] = molecular target: Beta-2 adrenergic receptor (Homo sapiens) (UniProt P07550); conditions: Compound concentration 10.0 uM
[35] = molecular target: SRSF protein kinase 1 (Homo sapiens) (UniProt Q96SB4); conditions: Compound concentration 1000.0 nM
[36] = molecular target: Aurora kinase C (Homo sapiens) (UniProt Q9UQB9); conditions: Compound concentration 1000.0 nM
[37] = molecular target: Calcium/calmodulin-dependent protein kinase type 1 (Homo sapiens) (UniProt Q14012); conditions: Compound concentration 1000.0 nM
[38] = molecular target: Tyrosine-protein kinase HCK (Homo sapiens) (UniProt P08631); conditions: Compound concentration 1000.0 nM
[39] = molecular target: cAMP-dependent protein kinase catalytic subunit alpha (Homo sapiens) (UniProt P17612); conditions: Compound concentration 1000.0 nM
[40] = molecular target: NUAK family SNF1-like kinase 2 (Homo sapiens) (UniProt Q9H093); conditions: Compound concentration 1000.0 nM
[41] = molecular target: Hepatocyte growth factor receptor (Homo sapiens) (UniProt P08581); conditions: Compound concentration 1000.0 nM
[42] = molecular target: Tyrosine-protein kinase Fes/Fps (Homo sapiens) (UniProt P07332); conditions: Compound concentration 1000.0 nM
[43] = molecular target: Serine/threonine-protein kinase D3 (Homo sapiens) (UniProt O94806); conditions: Compound concentration 1000.0 nM
[44] = molecular target: AP2-associated protein kinase 1 (Homo sapiens) (UniProt Q2M2I8); conditions: Compound concentration 1000.0 nM
[45] = molecular target: Serine/threonine-protein kinase Chk1 (Homo sapiens) (UniProt O14757); conditions: Compound concentration 1000.0 nM

Chain of Cyclin-dependent kinase 4 (Homo sapiens) (P11802 whole entry): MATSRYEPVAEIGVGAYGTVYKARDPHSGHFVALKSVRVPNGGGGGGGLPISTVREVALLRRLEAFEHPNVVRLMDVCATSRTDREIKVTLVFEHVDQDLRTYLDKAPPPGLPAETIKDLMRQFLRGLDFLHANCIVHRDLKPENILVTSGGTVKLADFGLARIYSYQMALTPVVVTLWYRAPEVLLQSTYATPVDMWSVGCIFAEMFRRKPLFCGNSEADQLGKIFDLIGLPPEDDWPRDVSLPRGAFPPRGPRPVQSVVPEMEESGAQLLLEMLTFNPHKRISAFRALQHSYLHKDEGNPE
Chain of Mitogen-activated protein kinase kinase kinase 5 (Homo sapiens) (Q99683 whole entry): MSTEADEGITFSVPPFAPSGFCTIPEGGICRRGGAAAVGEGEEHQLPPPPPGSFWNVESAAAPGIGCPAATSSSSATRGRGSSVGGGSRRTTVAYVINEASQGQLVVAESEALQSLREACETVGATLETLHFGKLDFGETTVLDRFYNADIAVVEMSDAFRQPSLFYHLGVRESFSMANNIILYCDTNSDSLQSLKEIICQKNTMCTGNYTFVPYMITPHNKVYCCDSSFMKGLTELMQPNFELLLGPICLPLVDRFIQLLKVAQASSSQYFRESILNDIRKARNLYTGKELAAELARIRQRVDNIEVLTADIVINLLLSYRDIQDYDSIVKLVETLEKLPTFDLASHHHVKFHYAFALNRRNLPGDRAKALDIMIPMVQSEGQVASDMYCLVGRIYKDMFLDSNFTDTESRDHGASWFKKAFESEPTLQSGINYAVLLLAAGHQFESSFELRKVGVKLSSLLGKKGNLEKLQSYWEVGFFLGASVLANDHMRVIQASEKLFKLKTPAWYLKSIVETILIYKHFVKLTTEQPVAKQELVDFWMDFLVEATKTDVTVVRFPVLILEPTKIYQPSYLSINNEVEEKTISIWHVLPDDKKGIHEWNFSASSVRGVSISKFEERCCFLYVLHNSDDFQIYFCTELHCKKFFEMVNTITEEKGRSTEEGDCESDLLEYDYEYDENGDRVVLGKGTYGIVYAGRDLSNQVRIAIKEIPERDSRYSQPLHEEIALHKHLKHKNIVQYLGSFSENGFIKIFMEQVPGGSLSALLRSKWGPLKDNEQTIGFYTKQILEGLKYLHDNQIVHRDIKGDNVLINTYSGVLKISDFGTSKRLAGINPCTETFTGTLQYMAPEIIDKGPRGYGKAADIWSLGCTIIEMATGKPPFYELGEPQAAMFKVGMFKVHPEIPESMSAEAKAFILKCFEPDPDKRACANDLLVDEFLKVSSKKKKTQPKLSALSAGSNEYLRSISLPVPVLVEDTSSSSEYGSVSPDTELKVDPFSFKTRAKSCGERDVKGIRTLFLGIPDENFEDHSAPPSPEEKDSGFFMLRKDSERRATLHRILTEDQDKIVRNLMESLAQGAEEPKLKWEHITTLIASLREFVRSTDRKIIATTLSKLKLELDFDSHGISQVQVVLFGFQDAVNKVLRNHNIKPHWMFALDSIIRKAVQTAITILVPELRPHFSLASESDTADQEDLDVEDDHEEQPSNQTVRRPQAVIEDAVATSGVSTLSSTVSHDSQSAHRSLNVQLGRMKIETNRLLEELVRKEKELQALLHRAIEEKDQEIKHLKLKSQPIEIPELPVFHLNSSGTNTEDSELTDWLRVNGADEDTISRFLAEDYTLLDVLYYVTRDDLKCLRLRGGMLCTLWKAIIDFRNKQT
Chain of Serine/threonine-protein kinase PAK 3 (Homo sapiens) (O75914 whole entry, looked up): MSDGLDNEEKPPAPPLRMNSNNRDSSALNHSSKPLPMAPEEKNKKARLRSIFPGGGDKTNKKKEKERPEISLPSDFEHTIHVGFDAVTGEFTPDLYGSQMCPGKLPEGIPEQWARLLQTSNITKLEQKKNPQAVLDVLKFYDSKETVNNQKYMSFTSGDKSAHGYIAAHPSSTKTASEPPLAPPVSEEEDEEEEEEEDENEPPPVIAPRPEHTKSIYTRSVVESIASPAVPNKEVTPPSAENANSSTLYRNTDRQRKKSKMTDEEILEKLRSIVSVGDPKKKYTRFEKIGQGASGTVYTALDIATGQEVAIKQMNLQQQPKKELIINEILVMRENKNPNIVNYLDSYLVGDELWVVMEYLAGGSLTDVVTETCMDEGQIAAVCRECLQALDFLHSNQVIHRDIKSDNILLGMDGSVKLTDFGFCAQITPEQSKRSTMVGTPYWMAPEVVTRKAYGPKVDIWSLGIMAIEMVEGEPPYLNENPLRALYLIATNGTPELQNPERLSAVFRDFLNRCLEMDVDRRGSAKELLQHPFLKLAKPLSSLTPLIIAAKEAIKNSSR
Chain of Activin receptor type-2A (Homo sapiens) (P27037 whole entry): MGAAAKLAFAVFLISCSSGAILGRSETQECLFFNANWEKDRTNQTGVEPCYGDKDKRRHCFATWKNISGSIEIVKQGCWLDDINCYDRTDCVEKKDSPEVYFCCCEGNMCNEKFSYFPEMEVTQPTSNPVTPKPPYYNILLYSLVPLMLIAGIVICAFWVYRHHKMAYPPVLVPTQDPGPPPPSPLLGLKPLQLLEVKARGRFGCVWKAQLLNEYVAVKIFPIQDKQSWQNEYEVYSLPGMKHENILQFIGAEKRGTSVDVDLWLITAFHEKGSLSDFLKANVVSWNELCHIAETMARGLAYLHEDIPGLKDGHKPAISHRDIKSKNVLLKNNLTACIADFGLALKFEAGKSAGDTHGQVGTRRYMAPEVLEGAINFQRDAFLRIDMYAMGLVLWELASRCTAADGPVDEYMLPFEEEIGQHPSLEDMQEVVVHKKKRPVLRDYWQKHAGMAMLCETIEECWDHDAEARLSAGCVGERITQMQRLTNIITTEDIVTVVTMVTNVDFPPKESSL
Chain of Serine/threonine-protein kinase D3 (Homo sapiens) (O94806 whole entry): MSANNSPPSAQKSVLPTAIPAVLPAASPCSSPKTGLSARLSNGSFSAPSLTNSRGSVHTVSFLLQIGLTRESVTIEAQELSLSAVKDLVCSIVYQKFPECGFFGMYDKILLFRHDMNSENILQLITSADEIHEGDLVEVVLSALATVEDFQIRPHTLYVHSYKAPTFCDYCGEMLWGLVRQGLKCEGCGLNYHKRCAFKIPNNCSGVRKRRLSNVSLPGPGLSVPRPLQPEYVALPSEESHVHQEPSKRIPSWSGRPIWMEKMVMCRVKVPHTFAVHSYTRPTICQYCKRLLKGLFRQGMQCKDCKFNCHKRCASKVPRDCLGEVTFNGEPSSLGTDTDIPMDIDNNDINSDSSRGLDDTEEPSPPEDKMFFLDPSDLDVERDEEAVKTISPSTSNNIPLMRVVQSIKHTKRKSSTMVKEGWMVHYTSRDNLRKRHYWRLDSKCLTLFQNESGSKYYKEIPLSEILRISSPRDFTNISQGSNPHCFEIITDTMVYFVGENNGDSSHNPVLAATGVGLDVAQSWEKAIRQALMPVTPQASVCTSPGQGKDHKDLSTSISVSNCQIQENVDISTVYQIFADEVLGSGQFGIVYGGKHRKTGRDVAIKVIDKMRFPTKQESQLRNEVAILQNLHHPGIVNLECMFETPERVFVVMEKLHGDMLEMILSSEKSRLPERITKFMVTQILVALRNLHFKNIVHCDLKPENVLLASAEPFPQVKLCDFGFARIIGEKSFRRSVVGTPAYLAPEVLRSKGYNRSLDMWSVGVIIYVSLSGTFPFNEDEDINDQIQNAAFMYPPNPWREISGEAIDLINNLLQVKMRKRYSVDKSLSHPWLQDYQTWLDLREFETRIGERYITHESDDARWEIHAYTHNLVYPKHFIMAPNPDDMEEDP
Chain of TGF-beta receptor type-2 (Homo sapiens) (P37173 whole entry): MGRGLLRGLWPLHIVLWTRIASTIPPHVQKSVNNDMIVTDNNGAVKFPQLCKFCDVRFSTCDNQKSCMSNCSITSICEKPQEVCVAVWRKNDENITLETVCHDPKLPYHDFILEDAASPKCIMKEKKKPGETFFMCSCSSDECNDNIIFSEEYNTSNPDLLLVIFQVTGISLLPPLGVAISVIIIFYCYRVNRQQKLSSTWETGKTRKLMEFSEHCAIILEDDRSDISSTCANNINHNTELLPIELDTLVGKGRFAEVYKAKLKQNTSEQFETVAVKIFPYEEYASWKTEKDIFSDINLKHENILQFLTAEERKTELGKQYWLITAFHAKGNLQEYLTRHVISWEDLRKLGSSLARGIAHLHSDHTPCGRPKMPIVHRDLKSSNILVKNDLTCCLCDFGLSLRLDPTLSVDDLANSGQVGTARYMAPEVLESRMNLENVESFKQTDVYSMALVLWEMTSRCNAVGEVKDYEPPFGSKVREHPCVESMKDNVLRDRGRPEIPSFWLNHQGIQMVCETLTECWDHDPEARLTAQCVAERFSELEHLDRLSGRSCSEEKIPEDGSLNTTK
Chain of Interleukin-1 receptor-associated kinase 4 (Homo sapiens) (Q9NWZ3 whole entry): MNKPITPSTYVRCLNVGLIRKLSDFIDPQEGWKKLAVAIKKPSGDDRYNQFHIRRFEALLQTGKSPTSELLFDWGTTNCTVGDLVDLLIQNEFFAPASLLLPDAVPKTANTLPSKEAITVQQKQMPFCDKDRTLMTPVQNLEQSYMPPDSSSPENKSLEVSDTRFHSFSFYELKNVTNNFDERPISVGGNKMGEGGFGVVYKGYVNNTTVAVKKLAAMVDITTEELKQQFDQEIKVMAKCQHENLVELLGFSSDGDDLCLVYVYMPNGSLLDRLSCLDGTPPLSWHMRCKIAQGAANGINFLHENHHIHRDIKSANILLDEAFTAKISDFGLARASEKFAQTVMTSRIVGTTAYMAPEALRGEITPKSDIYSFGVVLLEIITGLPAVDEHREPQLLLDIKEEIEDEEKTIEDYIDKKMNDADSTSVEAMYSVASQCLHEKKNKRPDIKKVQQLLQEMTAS
Chain of Aurora kinase C (Homo sapiens) (Q9UQB9 whole entry): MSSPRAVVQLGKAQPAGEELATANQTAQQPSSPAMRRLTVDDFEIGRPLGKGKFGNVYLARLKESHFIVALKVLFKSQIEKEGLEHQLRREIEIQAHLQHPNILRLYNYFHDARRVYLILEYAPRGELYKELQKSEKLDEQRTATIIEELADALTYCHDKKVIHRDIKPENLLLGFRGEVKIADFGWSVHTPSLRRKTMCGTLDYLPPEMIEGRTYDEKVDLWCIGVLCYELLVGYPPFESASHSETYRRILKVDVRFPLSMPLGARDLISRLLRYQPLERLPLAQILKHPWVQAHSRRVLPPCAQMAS

Cn1cncc1[C@@](O)(COc1ccc(C#N)cc1-c1ccc(OC(F)(F)F)cc1)c1ccc(C#N)cc1 [A-108]
residual activity [1]: 100% | residual activity [2]: 89% | residual activity [3]: 98% | residual activity [4]: 100% | residual activity [5]: 100% | residual activity [6]: 91% | residual activity [7]: 95% | residual activity [8]: 97% | residual activity [9]: 92% | residual activity [10]: 100% | residual activity [11]: 90% | residual activity [12]: 80% | residual activity [13]: 100% | residual activity [14]: 89% | residual activity [15]: 84% | residual activity [16]: 100% | residual activity [17]: 100% | residual activity [18]: 93% | residual activity [19]: 100% | residual activity [20]: 100% | residual activity [21]: 91% | residual activity [22]: 70% | residual activity [23]: 95% | residual activity [24]: 96% | residual activity [25]: 72% | residual activity [26]: 96% | residual activity [27]: 100% | residual activity [28]: 100% | residual activity [29]: 85% | residual activity [30]: 100% | residual activity [31]: 100% | residual activity [32]: 94% | residual activity [33]: 100% | inhibition [34]: 23.1% | residual activity [35]: 97% | residual activity [36]: 90% | residual activity [37]: 100% | residual activity [38]: 100% | residual activity [39]: 94% | residual activity [40]: 100% | residual activity [41]: 94% | residual activity [42]: 100% | residual activity [43]: 98% | residual activity [44]: 94% | residual activity [45]: 100%

Cn1cncc1[C@](O)(COc1ccc(C#N)cc1-c1ccc(OC(F)(F)F)cc1)c1ccc(C#N)cc1 [ABT-100]
residual activity [1]: 98% | residual activity [2]: 95% | residual activity [3]: 100% | residual activity [4]: 100% | residual activity [5]: 93% | residual activity [6]: 77% | residual activity [7]: 100% | residual activity [8]: 100% | residual activity [9]: 100% | residual activity [10]: 93% | residual activity [11]: 100% | residual activity [12]: 75% | residual activity [13]: 72% | residual activity [14]: 82% | residual activity [15]: 83% | residual activity [16]: 87% | residual activity [17]: 48% | residual activity [18]: 93% | residual activity [19]: 100% | residual activity [20]: 82% | residual activity [21]: 96% | residual activity [22]: 100% | residual activity [23]: 74% | residual activity [24]: 89% | residual activity [25]: 94% | residual activity [26]: 100% | residual activity [27]: 63% | residual activity [28]: 57% | residual activity [29]: 100% | residual activity [30]: 100% | residual activity [31]: 94% | residual activity [32]: 96% | residual activity [33]: 89% | inhibition [34]: 0.0774% | residual activity [35]: 70% | residual activity [36]: 100% | residual activity [37]: 99% | residual activity [38]: 100% | residual activity [39]: 81% | residual activity [40]: 100% | residual activity [41]: 74% | residual activity [42]: 100% | residual activity [43]: 100% | residual activity [44]: 87% | residual activity [45]: 97%
